The source of these data is publication PMC7407945, “Ranacyclin-NF, a Novel Bowman–Birk Type Protease Inhibitor from the Skin Secretion of the East Asian Frog, Pelophylax nigromaculatus” (Biology, 2020).

One data set has as its system MRSA. Put plainly: Checkerboard assay, peptide with Gentamicin. The settings on record: Staphylococcus aureus, 18 h. The class given is cell-based, Staphylococcus aureus. The procedure: Then, the microorganism cultures (1 × 10^6 cfu/mL) were inoculated into the plate wells and incubated at 37 °C for 18 h. The optical densities of the cultures were measured using an ELISA plate reader (Biotech Minneapolis, MN, USA). The lowest cumulative fractional inhibitory concentration (ΣFIC) was calculated with the following equation:(1) ΣFIC=Compound A treated in combination/Compound A, test in alone+Compound B treated in combination/Compound B, test in alone
ΣFIC ≤ 0.5 indicates synergy; 0.5 < Σ FIC ≤ 4 indicates an additive effect; and Σ FIC > 4 represents an antagonistic effect.

Data set [1] concerns the target T1, trypsin (Bos taurus, UniProt P00760).
T1 construct: gene PRSS1
T1 sequence (P00760 24-246): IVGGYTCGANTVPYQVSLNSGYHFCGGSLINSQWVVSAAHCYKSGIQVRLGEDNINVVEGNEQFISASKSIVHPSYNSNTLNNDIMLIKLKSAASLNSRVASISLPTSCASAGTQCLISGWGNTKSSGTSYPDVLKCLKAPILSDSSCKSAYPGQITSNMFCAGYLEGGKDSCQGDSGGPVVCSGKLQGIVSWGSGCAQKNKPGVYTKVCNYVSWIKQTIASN
The data set can be described thus: Trypsin inhibition assay. The conditions noted are these: substrate Phe-Pro-Arg-AMC. The format is biochemical. The procedure: (§1) Trypsin and chymotrypsin inhibition assays were performed as previously described. The substrate of trypsin and chymotrypsin were Phe-Pro-Arg-AMC and Succinyl-Ala-Ala-Pro-Phe-NHMec, respectively, and obtained from Bachem, Merseyside, UK. In the tryptase inhibition assay, peptide samples were first dissolved in tryptase assay buffer pH 7.6, containing 0.05 M Tris, 0.15 M NaCl and 0.2% (w/v) PEG 6000 (final volume 210 μL) to obtain different concentrations of 0.5, 1, 2 and 4 mM and then added to the wells of a black 96-well plate containing (Boc-Phe-Ser-Arg-NHMec, obtained from Bachem, Merseyside, UK) (50 μM). Before measurement, tryptase (2.5 μL from 1 mg/mL stock solution, Calbiochem, Nottingham, UK) was added to each well. The rate of hydrolysis of substrate was monitored continuously at 37 °C and 460 nm with a Fluostar Optima plate reader (BMG Labtech GmbH, Offenburg, Germany)

Data set [2] concerns the target T2, tryptase (Homo sapiens, UniProt Q15661).
T2 construct: purchased Calbiochem, Nottingham, UK
The data set can be described thus: Tryptase inhibition assay. The class given is biochemical. The conditions noted are these: substrate Boc-Phe-Ser-Arg-NHMec 50 μM; pH 7.6, 0.05 M Tris, 0.15 M NaCl, 0.2% PEG 6000; 37 °C; 460 nm. The procedure: as §1

The subject of data set [3] is Staphylococcus aureus (NCTC 10788). The settings on record: doubling-dilution method, up to 512 µM.
Data set [4] has as its system Methicillin-resistant Staphylococcus aureus (MRSA) (NCTC 12493). The settings on record: doubling-dilution method, up to 512 µM.
Data set [5] deals with Enterococcus faecalis (NCTC 12697). The conditions noted are these: doubling-dilution method, up to 512 µM.
Data set [6] has as its system Escherichia coli (NCTC 10418). The settings on record: doubling-dilution method, up to 512 µM.
The test system of data set [7] is Pseudomonas aeruginosa (ATTC 27853). The conditions noted are these: doubling-dilution method, up to 512 µM.
Data set [8] deals with Klebsiella pneumoniae (ATCC43816). The conditions noted are these: doubling-dilution method, up to 512 µM.
Data set [9] concerns Candida albicans (NCPF 1467). The conditions noted are these: doubling-dilution method, up to 512 µM.
For data set [10], the system named is HMEC-1 cells (human microvascular endothelial cell line). The conditions noted are these: MTT, 24 h, 10^−9 to 10^−4 M; result in words. The procedure: (§2) Cells (5 × 10^3 cells/mL) were seeded into 96-well plates with FBS-containing fresh medium for 24 h. After that, cells were treated with corresponding serum-free culture medium for 12 h. […] After exposure for 6 h, all liquid was removed and 100 µL of DMSO was added. Finally, the absorbance of samples at 570 nm was determined using an ELISA plate reader (Biotech, Minneapolis, MN, USA).

Data set [11] deals with HaCaT cells (human keratinocyte cell line). The settings on record: MTT, 24 h, 10^−9 to 10^−4 M; result in words. As for the experimental part: as §2
The test system of another data set is human normal cell lines. The settings on record: MTT, 24 h, highest concentration tested 100 µM; result in words. The procedure: as §2
Another data set deals with chymotrypsin (Bos taurus, UniProt P00766). The arrangement: method as in 2 sources, ref 24 = [24]; PMID 28356487; doi:10.1042/BSR20160593; 24. Wu Y. Long Q. Xu Y. Guo S. Chen T. Wang L. Zhou M. Zhang Y. Shaw C. Walker B. A structural and functional analogue of a Bowman–Birk-type protease inhibitor from Odorrana schmackeri Biosci. Rep. 20 ||| ref 32 = [32]; PMID 31337113; doi:10.3390/biom9070280; 32. Miao Y. Chen G. Xi X. Ma C. Wang L. Burrows J. Duan J. Zhou M. Chen T. Discovery and Rational Design of a Novel Bowman-Birk Related Protease Inhibitor Biomolecules 2019 9 280 10.3390/biom9070280 3; key: N.I.: there was no inhibitory activity. The settings on record: cited from earlier work.

Data set [12] concerns the target T2, tryptase. The settings on record: cited from earlier work; for tryptase inhibitory activity: result in words. The source says:
Therefore, the emergence of a novel tryptase inhibitor would be an asset in the treatment of some clinical diseases. […] Some publications believe that protease inhibitors cannot work effectively when it comes t ...

The target of data set [13] is T1, trypsin. The settings on record: cited from earlier work. The source says: Amino acid residues at P5′ are shaded. | column: Trypsin Inhibition Ki (nM) || In previous studies, extensive studies have been made to reveal the role played by each residue within the TIL in overall enzyme inhibitory activity. However, factors outside this conserved disulphide loop, which may affect trypsin inhibition activity, have rarely been studied. In 2012, Wang et al. discovered the peptide, HJTI, and designed one molecular variant to study the role that cationicity played in trypsin inhibitory potency. They believed that structural features, especially for amino acid residues lying outside the TIL, were crucial in modulating the effectiveness of trypsin inhibito ...

For data set [14] the following is noted: result in words; cited from earlier work. The source says: (§3) Therefore, ranacyclins firstly approach to the membrane surface through hydrophobic interaction and then, at sites where peptide concentrations reach a threshold, insert into the hydrophobic core of the membrane bilaye ...
A further data set relates to bacteria. The conditions noted are these: result in words; cited from earlier work.
Excerpt: as §3

Converted amounts (≈) assume the structure as drawn. Like-named read-outs stand apart in the source and are kept apart here. Bridge positions count the residues as written; N and C are the ends. Ends that are not written are not given here. Peptide text beside a SMILES is read from it. Some results are limits rather than exact numbers.

T2 sequence (Q15661 31-275): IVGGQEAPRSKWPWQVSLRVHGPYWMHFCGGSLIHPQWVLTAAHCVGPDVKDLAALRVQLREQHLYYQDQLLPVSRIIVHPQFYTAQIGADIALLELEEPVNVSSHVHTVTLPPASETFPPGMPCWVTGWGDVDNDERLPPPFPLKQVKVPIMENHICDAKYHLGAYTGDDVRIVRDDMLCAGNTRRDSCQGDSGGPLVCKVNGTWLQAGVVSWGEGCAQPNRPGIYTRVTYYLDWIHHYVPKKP

As to `CNC(C)C1CCC(N)C(OC2C(N)CC(N)C(OC3OCC(C)(O)C(NC)C3O)C2O)O1` (stereo not shown) [Gentamicin], the minimal inhibitory concentration (MIC) (in general, the lowest concentration that inhibits growth of the organism) in the data set with MRSA (read-out: MIC of Gentamicin against MRSA, Gentamicin alone, 37 °C, 18 h) was found to be 2 µM; with MRSA (read-out: MIC of Gentamicin against MRSA, in the presence of RNF and its analogues, 37 °C, 18 h), 1 µM.
Turning to `C[C@H](NC(=O)CN)C(=O)N1CCC[C@H]1C(=O)N[C@@H](CCCNC(=N)N)C(=O)NCC(=O)N[C@H]1CSSC[C@@H](C(=O)N[C@@H](Cc2ccccc2)C(=O)O)NC(=O)[C@@H]2CCCN2C(=O)[C@H](CCC(N)=O)NC(=O)[C@@H]2CCCN2C(=O)[C@@H]2CCCN2C(=O)[C@H](Cc2ccc(O)cc2)NC(=O)[C@H](CO)NC(=O)[C@H](CCCCN)NC(=O)[C@H]([C@@H](C)O)NC(=O)[C@H](Cc2c[nH]c3ccccc23)NC1=O` [RNF1] (H-GAPRGCWTKSYPPQPCF-OH; disulfide 6-16), the Ki (usually a dissociation constant, usually derived from enzyme kinetics or from competition with a known ligand) at trypsin [1] was 1.3 µM. In addition, the Ki on tryptase [2] amounted to 9.06 µM. In addition, in data set [3], the MBC S. aureus is above 512 µM and the MIC S. aureus is above 512 µM. Besides, in data set [4], the MBC MRSA was above 512 µM and the MIC MRSA was above 512 µM. In data set [5], this compound showed an MBC E. faecalis above 512 µM and an MIC E. faecalis above 512 µM. In addition, in data set [6], the MBC E. coli was above 512 µM and the MIC E. coli was above 512 µM. In data set [7], this compound showed an MBC P. aeruginosa above 512 µM and an MIC P. aeruginosa above 512 µM. In data set [8], this compound gave an MBC K. pneumoniae above 512 µM and an MIC K. pneumoniae above 512 µM. Further, in [9], the MBC C. albicans is above 512 µM and the MIC C. albicans is above 512 µM.
As to `C[C@H](NC(=O)CN)C(=O)N1CCC[C@H]1C(=O)N[C@@H](CCCNC(=N)N)C(=O)NCC(=O)N[C@H]1CSSC[C@@H](C(=O)N[C@@H](Cc2ccccc2)C(N)=O)NC(=O)[C@@H]2CCCN2C(=O)[C@H](CCC(N)=O)NC(=O)[C@@H]2CCCN2C(=O)[C@@H]2CCCN2C(=O)[C@H](Cc2ccc(O)cc2)NC(=O)[C@H](CO)NC(=O)[C@H](CCCCN)NC(=O)[C@H]([C@@H](C)O)NC(=O)[C@H](Cc2c[nH]c3ccccc23)NC1=O` [RNF] (H-GAPRGCWTKSYPPQPCF-NH2; disulfide 6-16), the affinity on trypsin [1], expressed as Ki, was 0.447 µM. The same compound yielded a Ki on tryptase [2] of 6.77 µM. Moreover, the “cytotoxicity on HMEC-1” value in data set [10] was “negligible cytotoxicity”. Besides, the “cytotoxicity on HaCaT” value in data set [11] is reported as “negligible cytotoxicity”. Further, in the data set on human normal cell lines, the cytotoxicity result is “negligible direct cytotoxicity”. In [3], this compound registered an MBC S. aureus above 512 µM and an MIC S. aureus of 512 µM (≈ 969 µg/mL). For the same compound, in data set [4], the MBC MRSA is above 512 µM and the MIC MRSA is above 512 µM. For the same compound, in [5], the MBC E. faecalis is above 512 µM and the MIC E. faecalis was above 512 µM. In data set [6], this compound yielded an MBC E. coli above 512 µM and an MIC E. coli above 512 µM. Besides, in data set [7], the MBC P. aeruginosa is above 512 µM and the MIC P. aeruginosa is above 512 µM. Moreover, in data set [8], the MBC K. pneumoniae was above 512 µM and the MIC K. pneumoniae is above 512 µM. For the same compound, in data set [9], the MBC C. albicans was above 512 µM and the MIC C. albicans is above 512 µM.
Turning to “AALKGCWTKSIPPKPCF-NH2 (disulfide 6-16 (inferred)) [OSTI]”, the “Ki(µM) of Chymotrypsin” value at chymotrypsin is recorded as “N.I”. For the same compound, the tryptase inhibitory activity result on tryptase [12] is given as “obvious tryptase inhibitory activity”.
On to “AALKGCWTKSIPPKPCF-NH2 (disulfide) (disulfide 6-16; N-terminus assumed; SMILES CC[C@H](C)[C@@H]1NC(=O)[C@H](CO)NC(=O)[C@H](CCCCN)NC(=O)[C@H]([C@@H](C)O)NC(=O)[C@H](Cc2c[nH]c3ccccc23)NC(=O)[C@@H](NC(=O)CNC(=O)[C@H](CCCCN)NC(=O)[C@H](CC(C)C)NC(=O)[C@H](C)NC(=O)[C@H](C)N)CSSC[C@@H](C(=O)N[C@@H](Cc2ccccc2)C(N)=O)NC(=O)[C@@H]2CCCN2C(=O)[C@H](CCCCN)NC(=O)[C@@H]2CCCN2C(=O)[C@@H]2CCCN2C1=O) [OSTI]”, for which the Ki with trypsin [13] is 0.0003 µM; in the data set with tryptase [12], 2.5 µM.
Consider “ALRGCWTKSIPPKPCP-NH2 (disulfide 5-15 (inferred)) [PPF-BBI]”, for which the “Ki(µM) of Chymotrypsin” value at chymotrypsin is “N.I”. At tryptase [12], the tryptase inhibitory activity result was “obvious tryptase inhibitory activity”.
With “ALRGCWTKSIPPKPCP-NH2 (disulfide) (disulfide 5-15; N-terminus assumed; SMILES CC[C@H](C)[C@@H]1NC(=O)[C@H](CO)NC(=O)[C@H](CCCCN)NC(=O)[C@H]([C@@H](C)O)NC(=O)[C@H](Cc2c[nH]c3ccccc23)NC(=O)[C@@H](NC(=O)CNC(=O)[C@H](CCCNC(=N)N)NC(=O)[C@H](CC(C)C)NC(=O)[C@H](C)N)CSSC[C@@H](C(=O)N2CCC[C@H]2C(N)=O)NC(=O)[C@@H]2CCCN2C(=O)[C@H](CCCCN)NC(=O)[C@@H]2CCCN2C(=O)[C@@H]2CCCN2C1=O) [PPF-BBI]”, the Ki is 0.17 µM in the data set with trypsin [13] and 30.7 µM with tryptase [12].
Regarding “GALRGCWTKSYPPKPCK-NH2 (disulfide 6-16 (inferred)) [Ranacyclin-T]”, in [14], the secondary structure result is recorded as “beta-sheet structure”. The “antimicrobial activity with respect to RNF” value with bacteria is listed as “relatively stronger antimicrobial activity”.
For the compound “GALRGCWTKSYPPKPCK-NH2 (disulfide) (disulfide 6-16) [Ranacyclin-T]”, in the data set with trypsin [13], the Ki was 0.116 µM.
In the case of “GAPKGCWTKSYPPQPCS-NH2 (disulfide) (disulfide 6-16; N-terminus assumed; SMILES C[C@H](NC(=O)CN)C(=O)N1CCC[C@H]1C(=O)N[C@@H](CCCCN)C(=O)NCC(=O)N[C@H]1CSSC[C@@H](C(=O)N[C@@H](CO)C(N)=O)NC(=O)[C@@H]2CCCN2C(=O)[C@H](CCC(N)=O)NC(=O)[C@@H]2CCCN2C(=O)[C@@H]2CCCN2C(=O)[C@H](Cc2ccc(O)cc2)NC(=O)[C@H](CO)NC(=O)[C@H](CCCCN)NC(=O)[C@H]([C@@H](C)O)NC(=O)[C@H](Cc2c[nH]c3ccccc23)NC1=O) [HJTI, Odorrana hejiangensis]”, the Ki with trypsin [13] is 0.388 µM.
